Test results as given in ChEMBL document CHEMBL1201862, “PubChem BioAssay data set” (2004).
Active and inactive are the calls of the source.

Columns and labels:
[1] = enhancers of respiration in Yfh1-depleted yeast, dose response, Friedreich's ataxia, plus single-dose screen (AID 1465); type: functional;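 note: yeast depleted of Yfh1p frataxin homolog grown on glycerol needing respiration; WST-1 tetrazolium dye reduction as measure of cellular dehydrogenase metabolic activity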
[2] = A375 melanoma cell viability loss, dose response, counter-screen for MITF inhibitor project, CellTiter-Glo luminescence, dry powder, set 4 (AID 624364); type: functional, cell-based; settings: A-375;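 note: A375 melanoma cells are MITF independent so this is a counter screen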
[3] = A375 melanoma cell cytotoxicity, dose response, counter-screen for MITF inhibitor project, CellTiter-Glo luminescence, dry powder, set 2 (AID 624489); type: functional, cell-based; settings: A-375;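 note: actives are compounds lowering A375 viability meaning general cytotoxicity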
[4] = biological target: T1, Estrogen receptor beta (Homo sapiens, UniProt Q92731); test: ERβ–SRC-3 coactivator interaction inhibitors, confirmation, orthogonal assay, biochemical, ELISA, streptavidin-HRP readout (AID 1060)
[5] = HEp-2 cell cytotoxicity, dose response, cytotoxicity control for RSV inhibitor project, HTS (AID 2410); type: functional; settings: human respiratory syncytial virus
[6] = cells
[7] = biological target: T1, Estrogen receptor beta
[8] = growth suppression of PTEN-null colon cells, dose response, cell-based, HCT116 PTEN knockout (AID 1047); type: functional;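 note: HCT116 colon tumor cells with PTEN knocked out; cells exposed to compound for 60 hours before readout; potency for loss of cell viability measured by luminescence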
[9] = growth suppression of beta-catenin-knockout colon cells, dose response, cell-based, HCT116, human colon tumor (AID 1045); type: functional;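 note: HCT116 colon tumor cells with beta catenin knocked out; cells exposed to compound for 60 hours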
[10] = biological target: T2, Oxysterols receptor LXR-beta (Homo sapiens, UniProt P55055); type: functional, cell-based;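 note: agonist activity at LXR measured by a cell-based luminescence readout across a dose range, run as a counterscreen for daf-12 agonists; potency for activation of Gal4-LXR reporter so compounds are agonists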
T2 sequence (P55055 whole entry): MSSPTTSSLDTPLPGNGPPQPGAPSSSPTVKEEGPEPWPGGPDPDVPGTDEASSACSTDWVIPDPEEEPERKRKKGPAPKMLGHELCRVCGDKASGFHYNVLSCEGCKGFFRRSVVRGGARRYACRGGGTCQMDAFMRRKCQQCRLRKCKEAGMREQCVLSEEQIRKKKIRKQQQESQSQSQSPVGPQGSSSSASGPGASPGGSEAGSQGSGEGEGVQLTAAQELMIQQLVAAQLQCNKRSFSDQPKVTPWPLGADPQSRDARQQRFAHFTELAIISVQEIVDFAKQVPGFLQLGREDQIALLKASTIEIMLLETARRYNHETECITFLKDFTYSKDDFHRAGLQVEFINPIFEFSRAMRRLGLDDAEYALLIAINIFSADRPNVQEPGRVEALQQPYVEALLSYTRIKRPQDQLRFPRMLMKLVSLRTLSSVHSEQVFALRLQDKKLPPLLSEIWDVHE

[11] = biological target: Prothrombin (Homo sapiens, UniProt P00734); test: Thrombin 1536 HTS Dose Response Confirmation. [Related pubchem assays: 1046 (Thrombin 1536 HTS; hits were confirmed in this assay)]; type: functional
[12] = A549 cell cytotoxicity, dose response, cytotoxicity control, plate reader, cherry-pick, antagonist series (AID 743412); type: functional, cell-based
[13] = HepG2 cell cytotoxicity, dose response, cytotoxicity control, plate reader, cherry-pick, antagonist series (AID 743416); type: functional, cell-based
[14] = LGR2 antagonists, dose response, cell-based, HEK293, CRE-luciferase reporter, cherry pick, set 2 (AID 743343); type: functional;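 note: transfected cells were stimulated with diluted bursicon conditioned medium after compound addition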
[15] = MC4R antagonists, dose response, counter-screen for LGR2 antagonist project, cell-based, plate reader, cherry pick (AID 743444); type: functional;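 note: transfected HEK 293 cells stimulated with alpha-MSH peptide; potency of inhibitors of the alpha-MSH evoked signal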
[16] = HEK293 cell cytotoxicity, dose response, cytotoxicity control, plate reader, cherry-picked samples (AID 743446); type: functional, cell-based
[17] = inhibitors of intracellular T. cruzi replication, confirmation, NIH3T3 host cells, beta-gal luminescence (AID 2044); type: functional, cell-based;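 note: intracellular parasites grown in NIH/3T3 mouse fibroblasts as host cells; luminescent beta-galactosidase reporter signal from transgenic T. cruzi replicating inside host cells; inhibitors lower the luminescence signal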
[18] = cytotoxicity toward NIH3T3 fibroblasts, dose response, counter-screen, cell-based, ATP luminescence, mouse fibroblasts (AID 2010); type: functional;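 note: cells exposed to compound for about 90 hours before reading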
[19] = Luminescence-based cell-based high throughput dose response assay to identify activators of the DAF-12 from the parasite S. stercoralis (ssDAF-12).; type: functional
[20] = biological target: T2, Oxysterols receptor LXR-beta; test: LXR agonists, Gal4 luciferase reporter, dose response, counter-screen for ssDAF-12 agonist project, cell-based, luminescence, HEK293, S. stercoralis campaign (AID 720737); type: functional; settings: read-out: IC50 (the source's name)

T1 sequence (Q92731 whole entry): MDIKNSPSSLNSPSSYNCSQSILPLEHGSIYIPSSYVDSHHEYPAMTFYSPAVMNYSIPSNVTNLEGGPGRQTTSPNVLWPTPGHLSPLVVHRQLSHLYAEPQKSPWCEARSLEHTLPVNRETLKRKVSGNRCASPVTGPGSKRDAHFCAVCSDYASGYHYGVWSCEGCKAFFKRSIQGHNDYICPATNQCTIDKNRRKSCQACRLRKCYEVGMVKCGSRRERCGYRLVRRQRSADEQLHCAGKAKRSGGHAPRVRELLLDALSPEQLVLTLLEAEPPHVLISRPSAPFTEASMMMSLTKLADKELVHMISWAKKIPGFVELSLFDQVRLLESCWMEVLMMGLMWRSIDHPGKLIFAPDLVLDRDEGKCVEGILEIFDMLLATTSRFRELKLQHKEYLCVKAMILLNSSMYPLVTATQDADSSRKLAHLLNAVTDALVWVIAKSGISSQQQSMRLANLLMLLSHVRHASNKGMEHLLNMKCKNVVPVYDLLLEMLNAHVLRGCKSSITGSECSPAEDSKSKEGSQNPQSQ

Structure (SMILES): N#C/C(=C/c1ccc(N2CCOCC2)o1)C(=O)N1CCOCC1
- EC50 [1]: > 100 µM (active)

Structure (SMILES): CCN1CCN(C2=C(Nc3ccccc3)C(=O)c3ccccc3C2=O)CC1
- AC50 [2]: 46.6 µM (active)
- AC50 [3]: 25.5 µM (active)

Structure (SMILES): CCOC(=O)c1ccc(NC(=O)COc2ccc(-n3cnnn3)cc2)cc1
- IC50 [4]: 0.0598 µM (not active)

Structure (SMILES): CCOC(=O)c1sc(NC(=O)Cn2nnc3sc4c(c3c2=O)CCC(C(C)(C)C)C4)nc1C (stereo not given)
- CC50 [5]: 23.7 µM (active)
- IC50 [6]: > 25 µM (active)

Structure (SMILES): CC/C(=N/Nc1ccccc1)c1cnnc(-c2ccccc2)n1
- IC50 [7]: > 50 µM (not active)
- EC50 [8]: 60.2 µM (active)
- IC50 [4]: 6.12 µM (not active)
- EC50 [9]: 70.6 µM (active)

Structure (SMILES): CN(C)c1ccc(C(C#N)c2ccccc2)nn1 (stereo not given)
- EC50 [10]: > 67.5 µM (inactive)

Structure (SMILES): CC(C)C(=O)n1nc(-c2cccnc2)nc1NCc1ccc(F)cc1
- IC50 [11]: 0.00567 µM (active)

Structure (SMILES): CCCC(=O)n1nc(-c2ccco2)nc1SCc1ccccc1
- IC50 [11]: 0.0232 µM (active)

Structure (SMILES): C[C@H]1CN([C@@H](C)CO)C(=O)Cc2cc(NS(=O)(=O)c3ccc(Cl)cc3)ccc2O[C@@H]1CN(C)Cc1ccc(Cl)c(Cl)c1
- AC50 [12]: 10.2 µM (active)
- AC50 [13]: 11.3 µM (active)
- AC50 [14]: 20.4 µM (active)
- AC50 [15]: 12.7 µM (active)
- AC50 [16]: 19.6 µM (active)

Structure (SMILES): Nc1nc(-c2ccc(Cl)cc2)nn1C(=O)c1cccnc1
- IC50 [11]: 1.37 µM (active)

Structure (SMILES): CN(CCO)c1cc(N2CCC3(CC2)OCCO3)c2nonc2c1[N+](=O)[O-]
- EC50 [1]: > 100 µM (active)

Structure (SMILES): CCOC(=O)c1ccc2[nH]c3c(c2c1)CN(C)CC3
- IC50 [6]: 1.22 µM (active)

Structure (SMILES): CCOc1ccccc1C(=O)N[C@H](C(=O)Nc1nc2c(s1)CCCC2)C(C)C
- EC50 [17]: 1.01 µM (active)
- EC50 [18]: > 60 µM (inconclusive)
- IC50 [19]: > 67.6 µM (inactive)
- EC50 [20]: > 67.6 µM (inactive)
